Test results as given in article PMC12113668, “Discovery of Potential Scaffolds for Methionine Adenosyltransferase 2A (MAT2A) Inhibitors: Virtual Screening, Synthesis, and Biological Evaluation” (Molecules, 2025).
Values joined by “and” are separate entries in the source; they are usually repeats but may differ in a detail not shown here. Equal values may be shown once. “Also recorded” adds a separate entry of the source.

What was measured:
MTAP−/− HCT116 cells = test: Cellular antiproliferation assay (CCK8), MTAP-deleted HCT116; type: cell-based; settings: Homo sapiens, HCT-116, 72 h, mean ± SD
Procedure: Cell viability assays were performed using Cell Counting Kit-8 (CCK8). Briefly, the MTAP-deleted HCT116 cells (Horizon) were plated at 1000 cells per well in 96-well plates in RPMI-1640 medium with 10% FBS and 1% PS, and then incubated at 37 °C under a 5% CO2 atmosphere overnight. The stock solutions were serially diluted 3-fold in DMSO to obtain an eight-point dilution curve with final compound concentrations and test compounds added. After 72 h, 10 μL CCK-8 dye was added in each well and the cells were incubated for 2–4 h. […] was measured at 450 nm. Dose response curves were analyzed in GraphPad Prism 8.

Parental HCT116 cells = test: Cellular antiproliferation assay (CCK8), parental HCT116; type: cell-based; settings: Homo sapiens, HCT-116, 72 h, mean ± SD
[1] = test system: HCT116 MTAP-deleted xenograft tumor; type: in vivo; settings: for tumor growth inhibition (TGI): 30 mg/kg orally q.d. for 19 days; for tumor growth inhibition (TGI) / T/C (%) relative tumor proliferation rate: BALB/c nude mice, HCT116 MTAP−/− xenograft; for T/C (%) relative tumor proliferation rate / Tumor volume / Histopathological analysis (H&E staining) of tumor tissues: 30 mg/kg orally q.d.; for Tumor volume: mean ± SD, at end of study; for Histopathological analysis (H&E staining) of tumor tissues: xenograft tumor tissue
Procedure: The antitumor efficacy of compound 17 was evaluated in female BALB/c nude mice using a standardized tumor xenotransplantation model. Animals were maintained under specific-pathogen-free (SPF) conditions, and all experimental procedures adhered to institutional animal care protocols approved by the Institute of Radiation Medicine, the Chinese Academy of Medical Sciences, and Peking Union Medical College, complying with national guidelines for humane treatment. For tumor induction, 2 × 10^6 HCT-116 MTAP^−/− cells suspended in PBS were subcutaneously implanted into the right hind flank. Following a 7-day engraftment period, mice were stratified into three cohorts (n = 5/group) via block randomization performed by an independent researcher to minimize selection bias. Compound 17 was administered orally at 30 mg/kg once daily, using 5% DMSO + 10% Solutol HS-15 + 85% saline as the vehicle solution. The positive control AG-270 was dosed at the same regimen (30 mg/kg, orally, once daily) with identical vehicle composition. Tumor progression was monitored every other day through digital caliper measurements, with volumes calculated using the ellipsoid approximation formula: V = 0.5 × length × width^2.

MAT2A = MAT2A (Homo sapiens, UniProt P31153); test: MAT2A enzymatic assay (colorimetric Phosphate Assay Kit-PiColorLock); type: biochemical; settings: for Maximum Inhibition (%): MAT2A enzymatic assay; for IC50: mean ± SD, at least three independent experiments, NA: no activity at 10 μM; for MAT2A inhibitory activity (in words): up to 10 μM
Procedure: The inhibition of MAT2A by each compound was determined using the colorimetric Phosphate Assay Kit-PiColorLock (#ab270004) as described previously. […] Assay measurements were performed in 1X buffer containing 50 mM Tris, 50 mM KCl, 10 mM MgCl2, and 0.05% Brij-35 (pH 8.0) in a final assay volume of 5 μL. A total of 2.5 μL of MAT2A protein with a final concentration of 20 μg/mL was added to each well of a 384 well assay plate containing 100 nL of each concentration of test compound dissolved in DMSO and incubated for 30 min at room temperature. ATP (100 μM final concentration) and L-Met (100 μM final concentration) were subsequently added and incubated for 30 min at room temperature. Then 20 μL of the phosphate assay kit substrate was added to each well, incubated at room temperature for 30 min, and then the absorbance was measured at 620 nm on a plate reader.

[2] = Cytotoxicity of new compounds in HEK293A; type: cell-based; settings: human, HEK293A cells

MAT2A, sequence (P31153 whole entry): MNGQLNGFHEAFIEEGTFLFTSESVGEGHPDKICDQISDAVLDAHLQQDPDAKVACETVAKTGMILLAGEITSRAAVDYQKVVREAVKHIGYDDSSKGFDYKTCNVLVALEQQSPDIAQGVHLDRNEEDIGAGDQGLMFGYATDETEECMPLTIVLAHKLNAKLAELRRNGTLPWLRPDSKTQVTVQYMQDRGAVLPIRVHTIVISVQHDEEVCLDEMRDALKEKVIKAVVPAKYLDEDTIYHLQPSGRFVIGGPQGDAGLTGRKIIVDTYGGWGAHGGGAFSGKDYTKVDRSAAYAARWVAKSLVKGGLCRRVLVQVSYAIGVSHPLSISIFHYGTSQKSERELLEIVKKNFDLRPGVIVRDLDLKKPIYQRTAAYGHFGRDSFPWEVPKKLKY

IC50 (MAT2A) | SMILES | Maximum Inhibition (%) (MAT2A) | IC50 [2] [µM] | other results
 | CN(C)c1nc(=O)n(-c2ccccc2)c2cc(Cl)ccc12 [6 (AZ-28), AZ-28, reference compound] |  |  | IC50 (MTAP−/− HCT116 cells): 0.35 ± 0.13 µM; IC50 (Parental HCT116 cells): 1.9 ± 0.2 µM
 | COc1ccc(-c2c(Nc3ccccn3)[nH]c3c(C4=CCCCC4)c(-c4ccccc4)nn3c2=O)cc1 [AG-270, reference compound] |  |  | tumor growth inhibition (TGI) [1]: 80.4%; T/C (%) relative tumor proliferation rate [1]: 22.9%; Tumor volume [1]: 351.9 ± 96.1 mm3; Histopathological analysis (H&E staining) of tumor tissues [1]: reduced cellular proliferation
6.8 ± 0.2 µM | CCOC(=O)c1[nH]c2c(c1-c1ccccc1)C(=O)CC(c1ccccc1)C2 (centres unmarked) [Compound 8, Ethyl 4-Oxo-3,6-diphenyl-4,5,6,7-tetrahydro-1H-indole-2-carboxylate] | 47 | > 100 | 
 | CCOC(=O)c1[nH]c2c(c1Cc1ccccc1)C(=O)CC(c1ccccc1)C2 (centres unmarked) [Compound 9, Ethyl 3-Benzyl-4-oxo-6-phenyl-4,5,6,7-tetrahydro-1H-indole-2-carboxylate] |  | > 100 | MAT2A inhibitory activity (in words) (MAT2A): no detectable activity; also recorded: inactive
 | CCOC(=O)c1[nH]c2c(c1Cc1ccccc1)C(=O)CC(C)(C)C2 [Compound 10] |  | > 100 | MAT2A inhibitory activity (in words) (MAT2A): no detectable activity; also recorded: inactive
15.6 ± 3.1 µM | CCOC(=O)c1c(C)c(C(=O)Nc2ccc(OC)cc2)c(C)n1C [Compound 11] |  | > 100 | 
 | Cn1cc(C(=O)Nc2ccc3c(c2)OCO3)c2ccccc21 [Compound 14] |  | > 100 | MAT2A inhibitory activity (in words) (MAT2A): completely lost its binding affinity; also recorded: abolished activity entirely
0.91 ± 0.09 µM | COc1ccc(NC(=O)c2ccc3scnc3c2)cc1 [Compound 15, N-(4-Methoxyphenyl)benzo[D]thiazole-5-carboxamide] | 80 | > 100 | IC50 (MTAP−/− HCT116 cells): 2.2 ± 0.1 µM; IC50 (Parental HCT116 cells): > 10 µM
 | COc1ccc(NC(=O)c2cccc3ncsc23)cc1 [Compound 16, N-(4-Methoxyphenyl)benzo[D]thiazole-7-carboxamide] |  | > 100 | MAT2A inhibitory activity (in words) (MAT2A): complete loss of binding affinity; also recorded: abolished activity entirely
0.78 ± 0.15 µM | COc1ccc(NC(=O)c2cccc(N3CCCCC3)c2)cc1 [Compound 18, N-(4-Methoxyphenyl)-3-(piperidin-1-Yl)benzamide] | 72 | > 100 | 
4.6 ± 0.3 µM | CCOC(=O)c1[nH]c2c(c1Cc1ccccc1OC)C(=O)CC(c1ccc(OC)cc1)C2 (centres unmarked) [Compound A10] | 65 | 55.6 ± 7.8 | 

SMILES | IC50 (MAT2A) | Maximum Inhibition (%) (MAT2A) | IC50 [2] [µM] | other results
CCn1cc(C(=O)Nc2ccc(OC)cc2)c2cccnc21 [Compound 12] | 2.9 ± 0.2 µM | 86 | > 100 | 
COc1ccc(NC(=O)c2cn(C)c3ccccc23)cc1 [Compound 13, N-(4-Methoxyphenyl)-1-methyl-1H-indole-3-carboxamide] | 2.1 ± 0.6 µM | 82 | > 100 | 
COc1ccc(NC(=O)c2cccc(-n3cccc3)c2)cc1 [Compound 17, N-(4-Methoxyphenyl)-3-(1H-pyrrol-1-Yl)benzamide] | 0.43 ± 0.06 µM | 84 | > 100 | IC50 (MTAP−/− HCT116 cells): 1.4 ± 0.3 µM; IC50 (Parental HCT116 cells): > 10 µM; tumor growth inhibition (TGI) [1]: 58.4%; T/C (%) relative tumor proliferation rate [1]: 44.4%; Tumor volume [1]: 659.9 ± 100.2 mm3; Histopathological analysis (H&E staining) of tumor tissues [1]: reduced cellular proliferation
COc1ccc(NC(=O)c2cn(C)c3ncccc23)cc1F [Compound A11] | 4.6 µM and 2.5 µM | 76 | > 100 | IC50 (MTAP−/− HCT116 cells): 6 ± 0.4 µM; IC50 (Parental HCT116 cells): > 10 µM
